Literature values as cited in article PMC11539907, “Cytotoxicity of norstictic acid derivatives, a depsidone from Ramalina anceps Nyl” (Turkish Journal of Chemistry, 2024).
Like-named read-outs stand apart in the source and are kept apart here.

Columns and labels:
[1] = system: MCF7 (breast carcinoma) cells; parameters: method as in Bogo et al. (2020); settings: ref Bogo et al. (2020), cited from earlier work
[2] = system: NIH/3T3 (mouse embryonic fibroblast) cells; parameters: method as in Bogo et al. (2020); settings: NIH/3T3 normal cells; ref Bogo et al. (2020); read-out: growth inhibition (GI50); cited from earlier work
[3] = system: MCF-10A mammary epithelial cells; parameters: method as in PMID 26744260; settings: cited from earlier work
[4] = system: HEP2 (laryngeal carcinoma) cells; parameters: method as in Bogo et al. (2020); settings: ref Bogo et al. (2020), cited from earlier work
[5] = system: MDA-MB-231/GFP cells implanted into athymic female nude mice; parameters: method as in PMID 26744260; settings: cited from earlier work
[6] = system: 786-0 (kidney carcinoma) cells; parameters: method as in Bogo et al. (2020); settings: ref Bogo et al. (2020), cited from earlier work
[7] = system: UACC-62 (human melanoma) cells; settings: cited from earlier work
[8] = system: TNBC MDA-MB-231 cells; parameters: method as in PMID 26744260; settings: cited from earlier work
[9] = system: HT-29 (colon carcinoma) cells; parameters: method as in Bogo et al. (2020); settings: ref Bogo et al. (2020), cited from earlier work
[10] = system: PC-03 (prostate carcinoma) cells; parameters: method as in Bogo et al. (2020); settings: ref Bogo et al. (2020), cited from earlier work
[11] = system: tested tumor cells (786-0, MCF7, HT-29, PC-03, HEP2, B16-F10, UACC-62); settings: cited from earlier work; for cytotoxic activity in words: panel of tumor cells
[12] = system: B16-F10 (murine melanoma) cells; parameters: method as in Brandão et al. (2013); settings: ref Brandão et al. (2013), cited from earlier work

## Cc1cc(O)c(C=O)c2c1C(=O)Oc1c(C)c(O)c3c(c1O2)C(O)OC3=O (stereo not shown) [compound 1, Norstictic acid]
[1]; 3T3 vs MCF7
  selectivity index (SI): 4.3
[1]; MCF7 cells, read-out: growth inhibition (GI50)
  GI50: 162 µM
[2]
  GI50: 696 µM
[3]
  toxicity to nontumorogenic cells in words: minimal toxicity
[4]; 3T3 vs HEP2
  selectivity index (SI): 4.4
[4]; HEP2 cells, read-out: growth inhibition (GI50)
  GI50: 157 µM
[5]
  in vivo effect on tumor growth in words: tolerability and significant inhibitory effect
[6]; 3T3 vs 786-0, from literature GI50 values
  selectivity index (SI): 0.9
[6]; 786-0 cells, read-out: growth inhibition (GI50)
  GI50: 759 µM
[7]; 3T3 vs UACC-62, ref Brandão et al. (2013)
  selectivity index (SI): >7.6
[7]; UACC-62 cells, ref Brandão et al. (2013), read-out: growth inhibition (GI50)
  GI50: 88.4 µM
[7]; UACC-62 human melanoma cells
  growth inhibition effect (GI50): 32.9 µg/mL
[8]
  proliferation, migration, and invasion in words: significantly suppressed the proliferation, migration, and invasion
[9]; 3T3 vs HT-29, from literature GI50 values
  selectivity index (SI): 0.7
[9]; HT-29 cells, read-out: growth inhibition (GI50)
  GI50: 916 µM
[10]; 3T3 vs PC-03 (PC-3)
  selectivity index (SI): 3.6
[10]; PC-03 cells, read-out: growth inhibition (GI50)
  GI50: 191 µM
[11]; MCF7, HEP2, PC-03, B16-F10, and UACC-62 cells, ref Bogo et al. (2020), Brandão et al. (2013), read-out: GI50, range
  GI50: 88.4 to 191 µM
[11]; listed as Norstictic acid
  cytotoxic activity in words: poor activity
[11]; listed as norstictic acid
  cytotoxic activity in words: low cytotoxic activity
[12]; 3T3 vs B16-F10
  selectivity index (SI): >4.1
[12]; B16-F10 cells, read-out: growth inhibition (GI50)
  GI50: 168 µM
